Consider 58 sequences from patent publication US20230293630A1, “Coronavirus T Cell Epitopes and Uses Thereof” (priority 2020, published 2023).

For one assay, the system named is SARS-CoV-2-specific CD4+ T cells (OX40+CD137+) in PBMC. It counts as cell-based, human.
Conditions: not given
Consider SGFAAYSRYRIGNYK, for which the “Frequency of response (%)” value is recorded as 31%, the “Magnitude by # of responding donors” value was 185 and the Sum of response is 739.

The same assay, now with this note: CD4+ T cell epitopes identified by AIM assay; percent of tested donors responding.
Turning to KVTFFPDLNGDVVAI [SEQ ID NO 257], the “Frequency of response (%)” value was 15%.
Still for that read-out and setting: to TRFQTLLALHRSYLT belongs 18%; to KLLKSIAATRGATVV [SEQ ID NO 258], 6%.
The same measure, in the same setting: to AYSNNSIAIPTNFTI belongs 8%; to LMIERFVSLAIDAYP [SEQ ID NO 259], 36%; to CPFGEVFNATRFASV, 9%.

Still in this assay, the particulars now being: CD4+ T cell epitopes identified by AIM assay; share of donors responding.
Turning to NKDGIIWVATEGALN, the “Frequency of response (%)” value came to 29%.
As for NIDGYFKIYSKHTPI, the “Frequency of response (%)” value was determined as 45%.
For the sequence FPRGQGVPINTNSSP, the “Frequency of response (%)” value is 8%.
The same measure, in the same setting: to FVSGNCDVVIGIVNN belongs 7%.
Same read-out and setting: then FGDQELIRQGTDYKH, with 8%.
On the same count and under the same terms, then TDYKHWPQIAQFAPS, with 8%; and KKPRQKRTATKAYNV, with 31%; and SGHNLAKHCLHVVGP, with 8%.
Turning to TNILLNVPLHGTILT, the “Frequency of response (%)” value was determined as 25%.
Take HCANFNVLFSTVFPP: the “Frequency of response (%)” value is recorded as 7%.
Still for that read-out and setting: to SEMVMCGGSLYVKPG belongs 6%.
For the sequence RAMPNMLRIMASLVL, the “Frequency of response (%)” value is on record as 7%.
Still for that read-out and setting: then ESDDYIATNGPLKVG, with 8%.
Consider LKPFERDISTEIYQA, for which the “Frequency of response (%)” value is 17%.
For NRNRFLYIIKLIFLW, the “Frequency of response (%)” value is 13%.
Still for that read-out and setting: to AIAMACLVGLMWLSY belongs 8%; to EELKKLLEQWNLVIG, 13%.
Same read-out and setting: to SFNPETNILLNVPLH belongs 8%.
Still for that read-out and setting: to KTDGTLMIERFVSLA belongs 7%.
On to WDLTAFGLVAEWFLA, for which the “Frequency of response (%)” value is reported as 8%.
In the case of RENNRVVISSDVLVN, the “Frequency of response (%)” value was determined as 33%.
Still for that read-out and setting: then AGFIKQYGDCLGDIA, with 25%; and EGALNTPKDHIGTRN, with 14%.
The same measure, in the same setting: to FLCWHTNCYDYCIPY belongs 7%; to ASAFFGMSRIGMEVT, 8%; to VRIIMRLWLCWKCRS, 14%.
On the same count and under the same terms, to FNCYFPLQSYGFQPT belongs 8%; to VYYPDKVFRSSVLHS, 15%; to DDQIGYYRRATRRIR [SEQ ID NO 245], 23%.
For IATNGPLKVGGSCVL, the “Frequency of response (%)” value is 8%.
The same measure, in the same setting: to TPSFKKGAKLLHKPI belongs 8%; to KEGQINDMILSLLSK, 33%.
LNTDHSSSSDNIALL: the “Frequency of response (%)” value stood at 8%.
Regarding AVITREVGFVVPGLP, the “Frequency of response (%)” value is 9%.
On to FTGYRVTKNSKVQIG, for which the “Frequency of response (%)” value is on record as 8%.
On to QFAPSASAFFGMSRI, for which the “Frequency of response (%)” value was 17%.
Same read-out and setting: to LPNDDTLRVEAFEYY belongs 9%.
For the sequence TFKCYGVSPTKLNDL, the “Frequency of response (%)” value amounted to 8%.
The same measure, in the same setting: to LPYGANKDGIIWVAT belongs 14%.
With LVAAGLEAPFLYLYA, the “Frequency of response (%)” value amounted to 9%.
With CNLLLLFVTVYSHLL, the “Frequency of response (%)” value turned out to be 18%.
LYIIKLIFLWLLWPV: the “Frequency of response (%)” value was 13%.
The same measure, in the same setting: then LGVYYHKNNKSWMES, with 9%; and GYKKPASRELKVTFF, with 15%.
On the same count and under the same terms, to TQHQPYVVDDPCPIH belongs 36%.
Same read-out and setting: then EKSNIIRGWIFGTTL, with 9%; and QFAYANRNRFLYIIK, with 20%; and LGASQRVAGDSGFAA, with 15%.
KIITLKKRWQLALSK: the “Frequency of response (%)” value is reported as 9%.
The same measure, in the same setting: then ELHLSWEVGKPRPPL, with 8%.
On the same count and under the same terms, then MKDLSPRWYFYYLGT, with 14%.

The assay is the same for the next values; noted with them: CD4+ T cell epitopes identified by AIM assay; sum of response per responding donor.
As to NKDGIIWVATEGALN, the “Magnitude by # of responding donors” value turned out to be 437.
Still for that read-out and setting: to NIDGYFKIYSKHTPI belongs 295.
Same read-out and setting: then FPRGQGVPINTNSSP, with 397.
Same read-out and setting: then FVSGNCDVVIGIVNN, with 180; and FGDQELIRQGTDYKH, with 281.
TDYKHWPQIAQFAPS: the “Magnitude by # of responding donors” value is 180.
Still for that read-out and setting: to KKPRQKRTATKAYNV belongs 227; to SGHNLAKHCLHVVGP, 148; to TNILLNVPLHGTILT, 543.
Still for that read-out and setting: then HCANFNVLFSTVFPP, with 211; and SEMVMCGGSLYVKPG, with 217.
As to RAMPNMLRIMASLVL, the “Magnitude by # of responding donors” value was found to be 144.
On to ESDDYIATNGPLKVG, for which the “Magnitude by # of responding donors” value is given as 133.
Still for that read-out and setting: then LKPFERDISTEIYQA, with 594.
Regarding NRNRFLYIIKLIFLW, the “Magnitude by # of responding donors” value is given as 210.
AIAMACLVGLMWLSY: the “Magnitude by # of responding donors” value was found to be 151.
On the same count and under the same terms, to EELKKLLEQWNLVIG belongs 223.
On to SFNPETNILLNVPLH, for which the “Magnitude by # of responding donors” value stood at 123.
The same measure, in the same setting: to KVTFFPDLNGDVVAI [SEQ ID NO 257] belongs 147; to KTDGTLMIERFVSLA, 150.
WDLTAFGLVAEWFLA: the “Magnitude by # of responding donors” value is recorded as 134.
On to RENNRVVISSDVLVN, for which the “Magnitude by # of responding donors” value is given as 170.
The same measure, in the same setting: to TRFQTLLALHRSYLT belongs 2172.
For AGFIKQYGDCLGDIA, the “Magnitude by # of responding donors” value was 817.
As for EGALNTPKDHIGTRN, the “Magnitude by # of responding donors” value is on record as 185.
The same measure, in the same setting: to FLCWHTNCYDYCIPY belongs 209; to ASAFFGMSRIGMEVT, 337.
On the same count and under the same terms, then VRIIMRLWLCWKCRS, with 131; and FNCYFPLQSYGFQPT, with 130.
Same read-out and setting: to KLLKSIAATRGATVV [SEQ ID NO 258] belongs 230.
On to VYYPDKVFRSSVLHS, for which the “Magnitude by # of responding donors” value is 198.
For DDQIGYYRRATRRIR [SEQ ID NO 245], the “Magnitude by # of responding donors” value is on record as 268.
For IATNGPLKVGGSCVL, the “Magnitude by # of responding donors” value is given as 112.
On the same count and under the same terms, to TPSFKKGAKLLHKPI belongs 103.
Same read-out and setting: then KEGQINDMILSLLSK, with 391; and LNTDHSSSSDNIALL, with 568.
Regarding AVITREVGFVVPGLP, the “Magnitude by # of responding donors” value turned out to be 682.
With FTGYRVTKNSKVQIG, the “Magnitude by # of responding donors” value was 116.
Take QFAPSASAFFGMSRI: the “Magnitude by # of responding donors” value amounted to 191.
For the sequence LPNDDTLRVEAFEYY, the “Magnitude by # of responding donors” value was 162.
TFKCYGVSPTKLNDL: the “Magnitude by # of responding donors” value stood at 221.
Consider LPYGANKDGIIWVAT, for which the “Magnitude by # of responding donors” value was 418.
As to LVAAGLEAPFLYLYA, the “Magnitude by # of responding donors” value is 133.
As to CNLLLLFVTVYSHLL, the “Magnitude by # of responding donors” value is listed as 212.
Same read-out and setting: to LYIIKLIFLWLLWPV belongs 199; to LGVYYHKNNKSWMES, 259; to GYKKPASRELKVTFF, 246.
For the sequence AYSNNSIAIPTNFTI, the “Magnitude by # of responding donors” value was 112.
The same measure, in the same setting: then TQHQPYVVDDPCPIH, with 338; and EKSNIIRGWIFGTTL, with 299.
The same measure, in the same setting: then QFAYANRNRFLYIIK, with 326; and LMIERFVSLAIDAYP [SEQ ID NO 259], with 388.
On the same count and under the same terms, to LGASQRVAGDSGFAA belongs 491; to KIITLKKRWQLALSK, 120; to ELHLSWEVGKPRPPL, 103.
For MKDLSPRWYFYYLGT, the “Magnitude by # of responding donors” value was determined as 2536.
Take CPFGEVFNATRFASV: the “Magnitude by # of responding donors” value amounted to 108.

Staying with this assay, now noted: CD4+ T cell epitopes identified by AIM assay; total response.
NKDGIIWVATEGALN returned a Sum of response of 1747.
Regarding NIDGYFKIYSKHTPI, the Sum of response is on record as 1475.
In turn, FPRGQGVPINTNSSP yielded a Sum of response of 397.
Still for that read-out and setting: then FVSGNCDVVIGIVNN, with 180; and FGDQELIRQGTDYKH, with 281.
The same measure, in the same setting: to TDYKHWPQIAQFAPS belongs 180; to KKPRQKRTATKAYNV, 907; to SGHNLAKHCLHVVGP, 148.
The same measure, in the same setting: then TNILLNVPLHGTILT, with 1628; and HCANFNVLFSTVFPP, with 211; and SEMVMCGGSLYVKPG, with 217.
In turn, RAMPNMLRIMASLVL gave a Sum of response of 144.
Same read-out and setting: to ESDDYIATNGPLKVG belongs 133.
Consider LKPFERDISTEIYQA, for which the Sum of response was 1188.
For the sequence NRNRFLYIIKLIFLW, the Sum of response worked out at 420.
Consider AIAMACLVGLMWLSY, for which the Sum of response is 151.
On the same count and under the same terms, then EELKKLLEQWNLVIG, with 446; and SFNPETNILLNVPLH, with 123; and KTDGTLMIERFVSLA, with 150.
Same read-out and setting: to WDLTAFGLVAEWFLA belongs 134.
The sequence RENNRVVISSDVLVN displayed a Sum of response of 170.
Turning to AGFIKQYGDCLGDIA, the Sum of response amounted to 2450.
Same read-out and setting: then EGALNTPKDHIGTRN, with 369; and FLCWHTNCYDYCIPY, with 209; and ASAFFGMSRIGMEVT, with 337.
Same read-out and setting: to VRIIMRLWLCWKCRS belongs 261; to FNCYFPLQSYGFQPT, 130; to VYYPDKVFRSSVLHS, 395.
With DDQIGYYRRATRRIR [SEQ ID NO 245], the Sum of response stood at 803.
Still for that read-out and setting: to IATNGPLKVGGSCVL belongs 112.
As to TPSFKKGAKLLHKPI, the Sum of response came to 103.
On to KEGQINDMILSLLSK, for which the Sum of response was 391.
For LNTDHSSSSDNIALL, the Sum of response is on record as 568.
Sequence AVITREVGFVVPGLP displayed a Sum of response of 682.
FTGYRVTKNSKVQIG returned a Sum of response of 116.
As to QFAPSASAFFGMSRI, the Sum of response is given as 381.
LPNDDTLRVEAFEYY: the Sum of response was 162.
TFKCYGVSPTKLNDL yielded a Sum of response of 221.
Turning to LPYGANKDGIIWVAT, the Sum of response is listed as 835.
For the sequence LVAAGLEAPFLYLYA, the Sum of response is listed as 133.
The sequence CNLLLLFVTVYSHLL displayed a Sum of response of 424.
The sequence LYIIKLIFLWLLWPV displayed a Sum of response of 397.
On the same count and under the same terms, to LGVYYHKNNKSWMES belongs 259; to GYKKPASRELKVTFF, 491; to TQHQPYVVDDPCPIH, 1352.
The same measure, in the same setting: then EKSNIIRGWIFGTTL, with 299; and QFAYANRNRFLYIIK, with 978; and LGASQRVAGDSGFAA, with 981.
The same measure, in the same setting: to KIITLKKRWQLALSK belongs 120; to ELHLSWEVGKPRPPL, 103.
As to MKDLSPRWYFYYLGT, the Sum of response amounted to 5072.

The assay is the same for the next values; noted with them: CD4+ T cell epitopes identified by AIM assay; total response summed over donors.
In the case of KVTFFPDLNGDVVAI [SEQ ID NO 257], the Sum of response turned out to be 293.
The same measure, in the same setting: then TRFQTLLALHRSYLT, with 4343; and KLLKSIAATRGATVV [SEQ ID NO 258], with 230.
The same measure, in the same setting: to AYSNNSIAIPTNFTI belongs 112; to LMIERFVSLAIDAYP [SEQ ID NO 259], 1941.
Still for that read-out and setting: then CPFGEVFNATRFASV, with 108.
